Assay results from article PMC12446476 (Nature Communications, 2025).
Like-named read-outs stand apart in the source and are kept apart here.

Tested on: non-gonococcal Neisseria
Assay: MIC determination for non-gonococcal Neisseria, agar dilution
Format: cell-based, Neisseria species
From the text: The 2024 WHO N. gonorrhoeae reference strains were used for quality control. Only whole MIC doubling dilutions are reported. Clinical breakpoints or the epidemiological cutoff (ECOFF, to indicate azithromycin resistance) from EUCAST (v14.0, https://www.eucast.org/clinical_breakpoints) were used to classify isolates as antimicrobial susceptible or resistant. […] Two times the standard inoculum defined by CLSI was used to establish consistent growth in untreated control samples for some strains. In vitro time-kill assays were performed according to CLSI guidelines[65] using Columbia Broth (BD Difco) supplemented with 1% IsoVitaleX Enrichment (BD). Viable bacterial counts were generated by plating 10-fold serially diluted samples on GC agar plates containing 1% IsoVitaleX Enrichment (BD).

Measured: MIC

Cc1c(CN(C)C(=O)/C=C/c2cnc3c(c2)N[C@H](C)[C@H](O)C(=O)N3)oc2ccccc12 [Debio 1453]
1 µg/mL: Neisseria perflava 25, Replicate 3, read-out: Minimum inhibitory concentration | Neisseria sicca 6, Consensus, read-out: Minimum inhibitory concentration | Neisseria sicca 6, Replicate 1, read-out: Minimum inhibitory concentration | Neisseria sicca 6, Replicate 2, read-out: Minimum inhibitory concentration | Neisseria sicca 6, Replicate 3, read-out: Minimum inhibitory concentration | Neisseria sicca 8, Consensus, read-out: Minimum inhibitory concentration | Neisseria sicca 8, Replicate 2, read-out: Minimum inhibitory concentration | Neisseria sicca 8, Replicate 3, read-out: Minimum inhibitory concentration
0.016 µg/mL: Neisseria sicca 3, Replicate 2, read-out: Minimum inhibitory concentration | Neisseria sicca 5, Consensus, read-out: Minimum inhibitory concentration | Neisseria sicca 5, Replicate 2, read-out: Minimum inhibitory concentration | Neisseria sicca 5, Replicate 3, read-out: Minimum inhibitory concentration
0.125 µg/mL: read-out: Minimum inhibitory concentration, Neisseria cinerea 4, Consensus | read-out: Minimum inhibitory concentration, Neisseria cinerea 4, Replicate 1 | read-out: Minimum inhibitory concentration, Neisseria cinerea 4, Replicate 2 | read-out: Minimum inhibitory concentration, Neisseria cinerea 4, Replicate 3 | read-out: Minimum inhibitory concentration, Neisseria cinerea 5, Consensus | read-out: Minimum inhibitory concentration, Neisseria cinerea 5, Replicate 1 | read-out: Minimum inhibitory concentration, Neisseria cinerea 5, Replicate 2 | read-out: Minimum inhibitory concentration, Neisseria cinerea 5, Replicate 3 | read-out: Minimum inhibitory concentration, Neisseria cinerea 8, Consensus | read-out: Minimum inhibitory concentration, Neisseria cinerea 8, Replicate 2 | read-out: Minimum inhibitory concentration, Neisseria cinerea 8, Replicate 3 | read-out: Minimum inhibitory concentration, Neisseria elongata 1, Consensus | read-out: Minimum inhibitory concentration, Neisseria elongata 1, Replicate 1 | read-out: Minimum inhibitory concentration, Neisseria elongata 1, Replicate 2 | read-out: Minimum inhibitory concentration, Neisseria elongata 1, Replicate 3 | read-out: Minimum inhibitory concentration, Neisseria flava 1, Consensus | read-out: Minimum inhibitory concentration, Neisseria flava 1, Replicate 1 | read-out: Minimum inhibitory concentration, Neisseria flava 1, Replicate 3 | read-out: Minimum inhibitory concentration, Neisseria flavescens 2, Consensus | read-out: Minimum inhibitory concentration, Neisseria flavescens 2, Replicate 1 | read-out: Minimum inhibitory concentration, Neisseria flavescens 2, Replicate 3 | read-out: Minimum inhibitory concentration, Neisseria flavescens 8, Consensus | read-out: Minimum inhibitory concentration, Neisseria flavescens 8, Replicate 2 | read-out: Minimum inhibitory concentration, Neisseria flavescens 8, Replicate 3 | read-out: Minimum inhibitory concentration, Neisseria flavescens 10, Consensus | read-out: Minimum inhibitory concentration, Neisseria flavescens 10, Replicate 1 | read-out: Minimum inhibitory concentration, Neisseria flavescens 10, Replicate 3 | read-out: Minimum inhibitory concentration, Neisseria flavescens 12, Replicate 3 | read-out: Minimum inhibitory concentration, Neisseria mucosa 2, Consensus | read-out: Minimum inhibitory concentration, Neisseria mucosa 2, Replicate 2 | read-out: Minimum inhibitory concentration, Neisseria mucosa 2, Replicate 3 | read-out: Minimum inhibitory concentration, Neisseria perflava 5, Consensus | read-out: Minimum inhibitory concentration, Neisseria perflava 5, Replicate 1 | read-out: Minimum inhibitory concentration, Neisseria perflava 5, Replicate 2 | read-out: Minimum inhibitory concentration, Neisseria perflava 5, Replicate 3 | read-out: Minimum inhibitory concentration, Neisseria perflava 18, Consensus | read-out: Minimum inhibitory concentration, Neisseria perflava 18, Replicate 1 | read-out: Minimum inhibitory concentration, Neisseria perflava 18, Replicate 3 | read-out: Minimum inhibitory concentration, Neisseria perflava 24, Consensus | read-out: Minimum inhibitory concentration, Neisseria perflava 24, Replicate 1 | read-out: Minimum inhibitory concentration, Neisseria perflava 24, Replicate 2 | read-out: Minimum inhibitory concentration, Neisseria perflava 24, Replicate 3 | read-out: Minimum inhibitory concentration, Neisseria polysaccharea 1, Consensus | read-out: Minimum inhibitory concentration, Neisseria polysaccharea 1, Replicate 1 | read-out: Minimum inhibitory concentration, Neisseria polysaccharea 1, Replicate 2 | read-out: Minimum inhibitory concentration, Neisseria polysaccharea 1, Replicate 3 | read-out: Minimum inhibitory concentration, Neisseria sicca 4, Consensus | read-out: Minimum inhibitory concentration, Neisseria sicca 4, Replicate 1 | read-out: Minimum inhibitory concentration, Neisseria sicca 4, Replicate 2 | read-out: Minimum inhibitory concentration, Neisseria subflava 3, Replicate 3
0.25 µg/mL: Neisseria sicca 1, Replicate 1, read-out: Minimum inhibitory concentration | Neisseria sicca 2, Consensus, read-out: Minimum inhibitory concentration | Neisseria sicca 2, Replicate 1, read-out: Minimum inhibitory concentration | Neisseria sicca 2, Replicate 2, read-out: Minimum inhibitory concentration | Neisseria sicca 9, Consensus, read-out: Minimum inhibitory concentration | Neisseria sicca 9, Replicate 1, read-out: Minimum inhibitory concentration | Neisseria sicca 9, Replicate 2, read-out: Minimum inhibitory concentration | Neisseria sicca 9, Replicate 3, read-out: Minimum inhibitory concentration | Neisseria subflava 2, Consensus, read-out: Minimum inhibitory concentration | Neisseria subflava 2, Replicate 1, read-out: Minimum inhibitory concentration | Neisseria subflava 2, Replicate 2, read-out: Minimum inhibitory concentration | Neisseria subflava 2, Replicate 3, read-out: Minimum inhibitory concentration | Neisseria subflava 3, Consensus, read-out: Minimum inhibitory concentration | Neisseria subflava 3, Replicate 1, read-out: Minimum inhibitory concentration | Neisseria subflava 3, Replicate 2, read-out: Minimum inhibitory concentration | po, Neisseria oralis 1, Consensus, read-out: Minimum inhibitory concentration | po, Neisseria oralis 1, Replicate 1, read-out: Minimum inhibitory concentration | po, Neisseria oralis 1, Replicate 2, read-out: Minimum inhibitory concentration | po, Neisseria oralis 1, Replicate 3, read-out: Minimum inhibitory concentration
0.008 µg/mL: Neisseria sicca 3, Consensus, read-out: Minimum inhibitory concentration | Neisseria sicca 3, Replicate 1, read-out: Minimum inhibitory concentration | Neisseria sicca 3, Replicate 3, read-out: Minimum inhibitory concentration | Neisseria sicca 5, Replicate 1, read-out: Minimum inhibitory concentration | Neisseria sicca 7, Consensus, read-out: Minimum inhibitory concentration | Neisseria sicca 7, Replicate 1, read-out: Minimum inhibitory concentration | Neisseria sicca 7, Replicate 2, read-out: Minimum inhibitory concentration | Neisseria sicca 7, Replicate 3, read-out: Minimum inhibitory concentration
2 µg/mL: Neisseria subflava 1, Consensus, read-out: Minimum inhibitory concentration | Neisseria subflava 1, Replicate 1, read-out: Minimum inhibitory concentration | Neisseria subflava 1, Replicate 2, read-out: Minimum inhibitory concentration | Neisseria subflava 1, Replicate 3, read-out: Minimum inhibitory concentration
0.064 µg/mL: Neisseria polysaccharea 2, Consensus, read-out: Minimum inhibitory concentration | Neisseria polysaccharea 2, Replicate 1, read-out: Minimum inhibitory concentration | Neisseria polysaccharea 2, Replicate 2, read-out: Minimum inhibitory concentration | Neisseria polysaccharea 2, Replicate 3, read-out: Minimum inhibitory concentration | Neisseria subflava 4, Consensus, read-out: Minimum inhibitory concentration | Neisseria subflava 4, Replicate 1, read-out: Minimum inhibitory concentration | Neisseria subflava 4, Replicate 2, read-out: Minimum inhibitory concentration | Neisseria subflava 4, Replicate 3, read-out: Minimum inhibitory concentration
0.5 µg/mL: Neisseria sicca 1, Consensus, read-out: Minimum inhibitory concentration | Neisseria sicca 1, Replicate 2, read-out: Minimum inhibitory concentration | Neisseria sicca 1, Replicate 3, read-out: Minimum inhibitory concentration | Neisseria sicca 2, Replicate 3, read-out: Minimum inhibitory concentration | Neisseria sicca 4, Replicate 3, read-out: Minimum inhibitory concentration | Neisseria sicca 8, Replicate 1, read-out: Minimum inhibitory concentration | Neisseria subflava 5, Consensus, read-out: Minimum inhibitory concentration | Neisseria subflava 5, Replicate 1, read-out: Minimum inhibitory concentration | Neisseria subflava 5, Replicate 2, read-out: Minimum inhibitory concentration | Neisseria subflava 5, Replicate 3, read-out: Minimum inhibitory concentration
